This is an account of results in patent US20240190824A1, “INHIBITORS OF TREK (TWIK RELATED K+ CHANNELS) CHANNEL FUNCTION” (ONO PHARMACEUTICAL CO., LTD., priority 2019, published 2024).

The target of the assay is human TREK-1 (Homo sapiens (Human), UniProt O95069). Briefly: TREK-1 Thallium (Tl+) flux assay. Type of assay: cell-based. Particulars: CHO-K1 cells stably expressing human TREK-1.
Chain of human TREK-1 (O95069 whole entry): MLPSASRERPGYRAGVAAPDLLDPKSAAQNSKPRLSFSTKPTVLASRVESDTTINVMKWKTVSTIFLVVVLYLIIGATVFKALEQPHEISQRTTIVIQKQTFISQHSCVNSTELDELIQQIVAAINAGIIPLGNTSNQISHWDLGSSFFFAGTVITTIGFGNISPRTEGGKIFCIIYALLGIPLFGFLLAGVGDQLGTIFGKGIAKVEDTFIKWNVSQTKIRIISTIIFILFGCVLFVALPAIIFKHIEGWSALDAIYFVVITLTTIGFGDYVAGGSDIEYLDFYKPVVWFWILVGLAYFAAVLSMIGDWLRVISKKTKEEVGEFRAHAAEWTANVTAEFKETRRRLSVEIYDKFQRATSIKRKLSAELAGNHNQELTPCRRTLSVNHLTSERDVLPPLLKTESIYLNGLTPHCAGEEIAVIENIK
What is called IC50 is the concentration that inhibits the measured activity by half. Read a low IC50 as higher potency. `Cc1cc(C#Cc2ccccc2)cnc1NC(=O)c1cc(C(=O)N2CCCC2C)ccc1Cl` (centres unmarked) [Compound 69, 2-chloro-N-[3-methyl-5-(2-phenylethynyl)-2-pyridyl]-5-(2-methylpyrrolidine-1-carbonyl)benzamide] showed a half-inhibitory concentration (IC50) of 230 nM. The value for `Cc1cc(C#Cc2ccccc2)cnc1NC(=O)c1cc(-c2cn(C)nc2C)ccc1Cl` [Compound 74, 2-chloro-5-(1,3-dimethylpyrazol-4-yl)-N-[3-methyl-5-(2-phenylethynyl)-2-pyridyl]benzamide] was 410 nM. The value for `Cn1cc(-c2ccc(Cl)c(C(=O)Nc3ncc(C#Cc4ccccc4)cc3F)c2)cn1` [Compound 59, 2-chloro-N-[3-fluoro-5-(2-phenylethynyl)-2-pyridyl]-5-(1-methylpyrazol-4-yl)benzamide] was 130 nM; that for `Cc1cc(C#Cc2ccccc2)cnc1NC(=O)c1cc(-c2cnn(C3CCOCC3)c2)ccc1Cl` [Compound 65, 2-chloro-N-[3-methyl-5-(2-phenylethynyl)-2-pyridyl]-5-(1-tetrahydropyran-4-ylpyrazol-4-yl)benzamide] was 200 nM. The value for `Cc1cc(C#Cc2ccccc2)cnc1NC(=O)c1c(Cl)ccc(NC(=O)OC(C)(C)C)c1F` [Compound 34, tert-butyl N-[4-chloro-2-fluoro-3-[[3-methyl-5-(2-phenylethynyl)-2-pyridyl]carbamoyl]phenyl]carbamate] was 360 nM. On to `Cc1cc(C#Cc2ccccc2)cnc1N1Cc2ccc(OCC3CCOCC3)cc2C1=O` [Compound 82, 2-(3-methyl-5-(phenylethynyl)pyridin-2-yl)-6-((tetrahydro-2H-pyran-4-yl)methoxy)isoindolin-1-one], for which half-maximal inhibition (IC50) required 390 nM. `Cc1nc(C)c(-c2ccc(Cl)c(C(=O)Nc3ncc(C#Cc4ccccc4)cc3C)c2)s1` [Compound 70, 2-chloro-5-(2,4-dimethylthiazol-5-yl)-N-[3-methyl-5-(2-phenylethynyl)-2-pyridyl]benzamide] yielded an IC50 of 260 nM. The value for `O=C(Nc1ncc(-c2ccn(-c3ccc(F)cc3)n2)cc1F)c1cc(NC(=O)C2COCCO2)ccc1Cl` (centres unmarked) [Compound 98, N-[4-chloro-3-[[3-fluoro-5-[1-(4-fluorophenyl)pyrazol-3-yl]-2-pyridyl]carbamoyl]phenyl]1,4-dioxane-2-carboxamide] was 560 nM; that for `O=C(Nc1ncc(C#Cc2ccccc2)cc1F)c1cc(-c2cnn(C3COC3)c2)ccc1Cl` [Compound 56, 2-chloro-N-[3-fluoro-5-(2-phenylethynyl)-2-pyridyl]-5-[1-(oxetan-3-yl)pyrazol-4-yl]benzamide] was 110 nM.

`Cc1cc(C#Cc2ccccc2)cnc1NC(=O)c1cc(C(=O)N2CC(F)C2)ccc1Cl` [Compound 73, 2-chloro-5-(3-fluoroazetidine-1-carbonyl)-N-[3-methyl-5-(2-phenylethynyl)-2-pyridyl]benzamide] showed an IC50 of 390 nM. Regarding `Cc1cc(C#Cc2ccccc2)cnc1NC(=O)c1cc(OCC2COCCO2)ccc1Cl` (centres unmarked) [Compound 22, 2-chloro-5-(1,4-dioxan-2-ylmethoxy)-N-[3-methyl-5-(2-phenylethynyl)-2-pyridyl]benzamide], the IC50 is 130 nM. The value for `Cc1cc(C#Cc2ccccc2)cnc1NC(=O)c1nc(NC(=O)C2CC2C)ccc1Cl` (centres unmarked) [Compound 33, 3-chloro-6-[(2-methylcyclopropanecarbonyl)amino]-N-[3-methyl-5-(2-phenylethynyl)-2-pyridyl]pyridine-2-carboxamide] was 290 nM.

For the molecule `Cc1cc(-c2cnn(-c3ccc(F)cc3)c2)cnc1NC(=O)c1cc(NC(=O)OC(C)(C)C)ccc1Cl` [Compound 94, tert-butyl N-[4-chloro-3-[[5-[1-(4-fluorophenyl)pyrazol-4-yl]-3-methyl-2-pyridyl]carbamoyl]phenyl]carbamate], the IC50 was 200 nM. The value for `Cc1cc(C#Cc2ccccc2)cnc1NC(=O)c1cc(NC(=O)C2CC(C)(O)C2)ccc1Cl` (centres unmarked) [Compound 32, 2-chloro-5-[(3-hydroxy-3-methyl-cyclobutanecarbonyl)amino]-N-[3-methyl-5-(2-phenylethynyl)-2-pyridyl]benzamide] was 280 nM. In turn, `CC(C)(C)OC(=O)Nc1ccc(Cl)c(C(=O)Nc2ncc(C#Cc3ccccc3)cc2F)n1` [Compound 38, tert-butyl N-[5-chloro-6-[[3-fluoro-5-(2-phenylethynyl)-2-pyridyl]carbamoyl]-2-pyridyl]carbamate] came in with an IC50 of 440 nM. Compared with the last molecule, the IC50 is about 1.6-fold higher. With `CC(C)(C)OC(=O)Nc1ccc(Cl)c(C(=O)Nc2ncc(-c3cnn(-c4ccc(F)cc4)c3)cc2F)c1` [Compound 92, tert-butyl (4-chloro-3-((3-fluoro-5-(1-(4-fluorophenyl)-1H-pyrazol-4 yl)pyridin-2-yl)carbamoyl)phenyl)carbamate], half-maximal inhibition (IC50) was put at 130 nM. Compared with the last molecule, the IC50 is about 3.4-fold lower. The value for `Cc1ncc(-c2ccc(Cl)c(C(=O)Nc3ncc(C#Cc4ccccc4)cc3C)c2)s1` [Compound 75, 2-chloro-N-[3-methyl-5-(2-phenylethynyl)-2-pyridyl]-5-(2-methylthiazol-5-yl)benzamide] was 450 nM.

`CC(C)(C)OC(=O)Nc1ccc(Cl)c(C(=O)Nc2c(F)cc(C#Cc3ccccc3)nc2F)c1` [Compound 40, tert-butyl N-[4-chloro-3-[[2,4-difluoro-6-(2-phenylethynyl)-3-pyridyl]carbamoyl]phenyl]carbamate] registered an IC50 of 470 nM. `CC(C)(C)OC(=O)Nc1ccc(Cl)c(C(=O)Nc2ncc(-c3cc(-c4ccccc4)no3)cc2F)c1` [Compound 96, tert-butyl N-[4-chloro-3-[[3-fluoro-5-(3-phenylisoxazol-5-yl)-2-pyridyl]carbamoyl]phenyl]carbamate] displayed an IC50 of 230 nM. `Cc1cc(C#Cc2ccc(F)cc2)cnc1NC(=O)c1cc(NC(=O)C2CCO2)ccc1Cl` (centres unmarked) [Compound 12, N-[4-chloro-3-[[5-[2-(4-fluorophenyl)ethynyl]-3-methyl-2-pyridyl]carbamoyl]phenyl]oxetane-2-carboxamide] gave an IC50 of 310 nM.

Take `C[C@H]1C[C@@H]1C(=O)Nc1ccc(Cl)c(C(=O)Nc2ncc(C#Cc3ccccc3)cc2F)c1` [Compound 2, 2-chloro-N-[3-fluoro-5-(2-phenylethynyl)-2-pyridyl]-5-[[(1S,2S)-2-methylcyclopropanecarbonyl]amino]benzamide]: the IC50 amounted to 90 nM. The value for `Cc1cc(C#Cc2ccccc2)cnc1NC(=O)c1cc(C(=O)N2CC(F)(F)C2)ccc1Cl` [Compound 16, 2-chloro-5-(3,3-difluoroazetidine-1-carbonyl)-N-[3-methyl-5-(2-phenylethynyl)-2-pyridyl]benzamide] was 320 nM; that for `Cc1cc(-c2cnn(-c3ccccc3)c2)cnc1NC(=O)c1cc(NC(=O)OC(C)(C)C)ccc1Cl` [Compound 93, tert-butyl N-[4-chloro-3-[[3-methyl-5-(1-phenylpyrazol-4-yl)-2-pyridyl]carbamoyl]phenyl]carbamate] was 190 nM. Molecule `O=C(Nc1ncc(C#Cc2ccccc2)cc1F)c1cc(NC(=O)C2(F)CC2)ccc1Cl` [Compound 6, 2-chloro-5-[(1-fluorocyclopropanecarbonyl)amino]-N-[3-fluoro-5-(2-phenylethynyl)-2-pyridyl]benzamide] gave an IC50 of 170 nM. The IC50 values of the last two molecules are within 1.5-fold of each other. The value for `Cc1cc(C#Cc2ccccc2)cnc1NC(=O)c1cc(NC(=O)OC(C)(C)C)cnc1Cl` [Compound 52, tert-butyl N-[6-chloro-5-[[3-methyl-5-(2-phenylethynyl)-2-pyridyl]carbamoyl]-3-pyridyl]carbamate] was 2170 nM; that for `Cc1cc(C#Cc2ccccc2)cnc1NC(=O)c1cc(C(=O)NC(C)(C)CO)ccc1Cl` [Compound 17, 4-chloro-N1-(2-hydroxy-1,1-dimethyl-ethyl)-N3-[3-methyl-5-(2-phenylethynyl)-2-pyridyl]benzene-1,3-dicarboxamide] was 180 nM. The value for `Cc1nn(C)cc1-c1ccc(Cl)c(C(=O)Nc2ncc(C#Cc3ccccc3)cc2F)c1` [Compound 68, 2-chloro-5-(1,3-dimethylpyrazol-4-yl)-N-[3-fluoro-5-(2-phenylethynyl)-2-pyridyl]benzamide] was 220 nM. For `Cc1ccc(NC(=O)OC(C)(C)C)cc1C(=O)Nc1ncc(C#Cc2ccccc2)cc1C` [Compound 46, tert-butyl N-[4-methyl-3-[[3-methyl-5-(2-phenylethynyl)-2-pyridyl]carbamoyl]phenyl]carbamate], the IC50 was determined as 870 nM. Compared with the last molecule, the IC50 is about 4-fold higher.

Take `O=C(Nc1ncc(C#Cc2ccccc2)cc1F)c1cc(OC[C@H]2COCCO2)ccc1Cl` [Compound 80, 2-chloro-5-[[(2R)-1,4-dioxan-2-yl]methoxy]-N-[3-fluoro-5-(2-phenylethynyl)-2-pyridyl]benzamide]: the IC50 came out at 60 nM. The value for `Cc1cc(-c2noc(-c3ccc(F)cc3)n2)cnc1NC(=O)c1cc(NC(=O)OC(C)(C)C)ccc1Cl` [Compound 95, tert-butyl N-[4-chloro-3-[[5-[5-(4-fluorophenyl)-1,2,4-oxadiazol-3-yl]-3-methyl-2-pyridyl]carbamoyl]phenyl]carbamate] was 230 nM. The value for `Cc1cc(C#Cc2ccccc2)cnc1NC(=O)c1cc(C(=O)N2CC(O)C2)ccc1Cl` [Compound 71, 2-chloro-5-(3-hydroxyazetidine-1-carbonyl)-N-[3-methyl-5-(2-phenylethynyl)-2-pyridyl]benzamide] was 300 nM; that for `Cc1cc(C#Cc2ccccc2)cnc1NC(=O)c1cc(-c2c(C)cnn2C)ccc1Cl` [Compound 76, 2-chloro-5-(2,4-dimethylpyrazol-3-yl)-N-[3-methyl-5-(2-phenylethynyl)-2-pyridyl]benzamide] was 450 nM. The molecule `CC1CC1C(=O)Nc1ccc(Cl)c(C(=O)Nc2ncc(C#Cc3ccccc3)cc2F)c1` (centres unmarked) [Compound 3, 2-chloro-N-[3-fluoro-5-(2-phenylethynyl)-2-pyridyl]-5-[(2-methylcyclopropanecarbonyl)amino]benzamide] showed a 50% inhibitory concentration (IC50) of 70 nM.

The molecule `Cc1cc(OCc2ccccc2)ccc1NC(=O)c1ccc(N)cc1Cl` [Compound 89, 4-amino-N-(4-(benzyloxy)-2-methylphenyl)-2-chlorobenzamide] registered an IC50 of 7670 nM. As for `Cc1cc(C#Cc2ccccc2)cnc1NC(=O)c1cc(OC[C@H]2COCCO2)ccc1Cl` [Compound 21, 2-chloro-5-[[(2R)-1,4-dioxan-2-yl]methoxy]-N-[3-methyl-5-(2-phenylethynyl)-2-pyridyl]benzamide], the IC50 amounted to 110 nM.
